Results from ChEMBL document CHEMBL1201862, “PubChem BioAssay data set” (2004).
Active and inactive are the calls of the source.

Legend:
[1] = biological target: Mucolipin-3 (Homo sapiens, UniProt Q8TDD5); test: Dose response cell-based high-throughput screening assay for agonists of the transient receptor potential channel ML3 (TRPML3). [Related pubchem assays: 1526, 1424, 1448 ]; format: functional
[2] = biological target: Ion channel NompC (Danio rerio, UniProt Q7T1G6); test: Fluorescence counterscreen assay for TRPML3 agonists: dose response cell-based high-throughput screening assay to identify agonists of the transient receptor potential channel N1 (TRPN1). [Related pubchem assays: 1526, 1424, 1448 ]; format: functional
Chain of Ion channel NompC (Q7T1G6 whole entry): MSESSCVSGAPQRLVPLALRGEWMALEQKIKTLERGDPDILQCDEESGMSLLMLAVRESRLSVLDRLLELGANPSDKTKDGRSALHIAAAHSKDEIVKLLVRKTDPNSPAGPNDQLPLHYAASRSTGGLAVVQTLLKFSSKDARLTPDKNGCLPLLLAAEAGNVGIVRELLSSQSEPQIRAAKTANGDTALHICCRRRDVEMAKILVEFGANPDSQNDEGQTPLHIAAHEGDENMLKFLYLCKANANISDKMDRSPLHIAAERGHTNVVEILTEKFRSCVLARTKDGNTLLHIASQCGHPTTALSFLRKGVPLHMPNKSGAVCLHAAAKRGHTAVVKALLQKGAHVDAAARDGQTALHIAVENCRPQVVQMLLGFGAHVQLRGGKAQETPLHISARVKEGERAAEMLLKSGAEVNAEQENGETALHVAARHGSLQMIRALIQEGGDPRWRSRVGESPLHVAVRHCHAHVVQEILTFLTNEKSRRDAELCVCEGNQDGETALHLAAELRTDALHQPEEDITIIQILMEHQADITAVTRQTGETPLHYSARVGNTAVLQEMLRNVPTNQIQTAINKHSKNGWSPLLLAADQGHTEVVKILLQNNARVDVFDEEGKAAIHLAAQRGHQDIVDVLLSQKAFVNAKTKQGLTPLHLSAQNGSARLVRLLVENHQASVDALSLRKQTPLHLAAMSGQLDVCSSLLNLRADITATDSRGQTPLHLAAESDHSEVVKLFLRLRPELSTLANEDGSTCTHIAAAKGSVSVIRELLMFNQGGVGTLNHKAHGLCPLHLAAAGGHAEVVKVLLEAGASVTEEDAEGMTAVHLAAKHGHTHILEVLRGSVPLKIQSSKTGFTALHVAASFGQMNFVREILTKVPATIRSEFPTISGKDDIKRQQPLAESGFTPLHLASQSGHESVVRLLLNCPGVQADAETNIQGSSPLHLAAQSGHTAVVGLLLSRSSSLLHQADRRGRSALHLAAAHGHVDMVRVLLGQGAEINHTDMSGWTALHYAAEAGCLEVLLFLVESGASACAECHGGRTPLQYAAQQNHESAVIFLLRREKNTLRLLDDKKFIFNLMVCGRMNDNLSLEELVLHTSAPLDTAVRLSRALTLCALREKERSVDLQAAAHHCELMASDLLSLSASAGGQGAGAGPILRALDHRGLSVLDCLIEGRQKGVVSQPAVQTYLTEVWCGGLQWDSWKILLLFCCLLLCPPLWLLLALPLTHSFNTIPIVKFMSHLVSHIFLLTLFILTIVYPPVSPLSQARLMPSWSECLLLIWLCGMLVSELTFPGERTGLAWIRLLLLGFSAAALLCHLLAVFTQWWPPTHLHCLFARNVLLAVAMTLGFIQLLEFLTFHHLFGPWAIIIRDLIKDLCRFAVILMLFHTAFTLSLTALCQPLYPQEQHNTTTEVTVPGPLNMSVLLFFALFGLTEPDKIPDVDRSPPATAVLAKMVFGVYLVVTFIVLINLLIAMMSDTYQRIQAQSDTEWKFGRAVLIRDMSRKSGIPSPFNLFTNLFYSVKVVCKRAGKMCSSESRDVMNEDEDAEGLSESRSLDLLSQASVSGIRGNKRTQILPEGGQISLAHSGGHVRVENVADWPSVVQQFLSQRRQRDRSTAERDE

[3] = biological target: Cytochrome P450 3A4 (Homo sapiens, UniProt P08684); conditions: Potency;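 also: confirmatory qHTS run detecting inhibitors and substrates of CYP3A4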
Chain of Cytochrome P450 3A4 (P08684 whole entry): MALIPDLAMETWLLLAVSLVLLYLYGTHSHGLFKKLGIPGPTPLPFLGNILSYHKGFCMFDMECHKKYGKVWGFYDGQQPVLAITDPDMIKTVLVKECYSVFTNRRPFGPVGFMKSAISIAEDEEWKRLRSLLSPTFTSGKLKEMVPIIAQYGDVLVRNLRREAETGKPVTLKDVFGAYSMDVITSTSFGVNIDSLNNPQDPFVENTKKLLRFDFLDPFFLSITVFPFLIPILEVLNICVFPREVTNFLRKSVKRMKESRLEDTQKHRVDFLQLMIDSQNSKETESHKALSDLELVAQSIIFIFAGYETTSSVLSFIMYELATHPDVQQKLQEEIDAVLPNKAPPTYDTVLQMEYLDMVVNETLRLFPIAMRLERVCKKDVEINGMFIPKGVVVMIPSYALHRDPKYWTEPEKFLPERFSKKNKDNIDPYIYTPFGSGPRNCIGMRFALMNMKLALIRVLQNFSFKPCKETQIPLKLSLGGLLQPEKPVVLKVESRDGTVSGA

[4] = biological target: Cytochrome P450 2C9 (Homo sapiens, UniProt P11712); conditions: Potency
Chain of Cytochrome P450 2C9 (P11712 whole entry): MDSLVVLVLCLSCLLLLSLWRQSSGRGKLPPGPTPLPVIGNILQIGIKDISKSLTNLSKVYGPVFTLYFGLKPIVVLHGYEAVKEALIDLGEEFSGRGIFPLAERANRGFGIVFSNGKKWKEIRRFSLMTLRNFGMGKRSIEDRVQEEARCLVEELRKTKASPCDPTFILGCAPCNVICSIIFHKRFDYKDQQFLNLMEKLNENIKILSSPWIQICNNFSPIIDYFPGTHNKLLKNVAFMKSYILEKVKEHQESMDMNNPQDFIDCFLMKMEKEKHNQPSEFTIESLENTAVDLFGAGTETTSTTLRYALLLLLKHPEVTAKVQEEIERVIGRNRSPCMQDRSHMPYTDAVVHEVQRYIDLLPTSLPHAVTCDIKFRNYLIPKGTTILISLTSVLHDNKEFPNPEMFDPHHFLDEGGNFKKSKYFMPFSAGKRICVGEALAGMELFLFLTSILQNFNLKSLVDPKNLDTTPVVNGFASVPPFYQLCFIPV

[5] = cytotoxicity toward NIH3T3 fibroblasts, dose response, counter-screen, cell-based, ATP luminescence, mouse fibroblasts (AID 2010); format: functional;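 also: cells exposed to compound for about 90 hours before reading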
[6] = inhibitors of intracellular T. cruzi replication, confirmation, NIH3T3 host cells, beta-gal luminescence (AID 2044); format: functional, cell-based;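 also: intracellular parasites grown in NIH/3T3 mouse fibroblasts as host cells; luminescent beta-galactosidase reporter signal from transgenic T. cruzi replicating inside host cells; inhibitors lower the luminescence signal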
[7] = A Cell Based Secondary Assay To Explore Cytotoxicity of Compounds that Sensitize Mycobacterium Tuberculosis to Beta-Lactam Antibiotics.; format: functional
[8] = biological target: Eukaryotic translation initiation factor 4H (Homo sapiens, UniProt Q15056); test: human eIF4H binding inhibitors, primary screen, translation initiation inhibitor project, biochemical, uHTS, fluorescence polarization (AID 2012)
[9] = biological target: Polyadenylate-binding protein 1 (Homo sapiens, UniProt P11940); test: PABP poly(A) RNA binding inhibitors, primary screen, biochemical, fluorescence polarization, uHTS (AID 2014)
Chain of Polyadenylate-binding protein 1 (P11940 whole entry): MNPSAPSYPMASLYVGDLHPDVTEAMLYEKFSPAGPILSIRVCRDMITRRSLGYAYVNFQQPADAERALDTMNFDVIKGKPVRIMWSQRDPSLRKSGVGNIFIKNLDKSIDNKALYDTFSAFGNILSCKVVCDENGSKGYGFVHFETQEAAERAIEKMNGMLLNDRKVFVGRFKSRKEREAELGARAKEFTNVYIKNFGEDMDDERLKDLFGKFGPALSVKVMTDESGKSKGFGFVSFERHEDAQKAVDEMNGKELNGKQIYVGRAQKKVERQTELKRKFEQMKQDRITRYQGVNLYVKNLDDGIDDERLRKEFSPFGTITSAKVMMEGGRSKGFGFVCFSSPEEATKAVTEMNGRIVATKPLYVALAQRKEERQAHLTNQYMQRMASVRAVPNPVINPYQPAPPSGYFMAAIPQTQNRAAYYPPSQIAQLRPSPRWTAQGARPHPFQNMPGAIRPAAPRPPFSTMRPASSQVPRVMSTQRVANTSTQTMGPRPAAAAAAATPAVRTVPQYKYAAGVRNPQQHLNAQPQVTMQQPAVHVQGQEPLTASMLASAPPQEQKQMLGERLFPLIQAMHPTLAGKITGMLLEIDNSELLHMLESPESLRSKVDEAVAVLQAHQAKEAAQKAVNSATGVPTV

[10] = biological target: Acyl-homoserine lactone acylase PvdQ (Pseudomonas aeruginosa (strain LESB58), UniProt Q9I194); test: P. aeruginosa PvdQ acylase inhibitors, dose response, biochemical, fluorescence, plate reader and imaging, cherry-picks (AID 493231)
Chain of Acyl-homoserine lactone acylase PvdQ (Q9I194 24-193 limits assumed): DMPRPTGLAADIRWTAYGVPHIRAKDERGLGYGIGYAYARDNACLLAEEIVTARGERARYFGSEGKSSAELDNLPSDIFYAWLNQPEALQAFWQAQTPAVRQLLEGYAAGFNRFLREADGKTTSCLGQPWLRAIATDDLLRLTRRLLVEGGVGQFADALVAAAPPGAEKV
Chain of Acyl-homoserine lactone acylase PvdQ (Q9I194 217-762 limits assumed): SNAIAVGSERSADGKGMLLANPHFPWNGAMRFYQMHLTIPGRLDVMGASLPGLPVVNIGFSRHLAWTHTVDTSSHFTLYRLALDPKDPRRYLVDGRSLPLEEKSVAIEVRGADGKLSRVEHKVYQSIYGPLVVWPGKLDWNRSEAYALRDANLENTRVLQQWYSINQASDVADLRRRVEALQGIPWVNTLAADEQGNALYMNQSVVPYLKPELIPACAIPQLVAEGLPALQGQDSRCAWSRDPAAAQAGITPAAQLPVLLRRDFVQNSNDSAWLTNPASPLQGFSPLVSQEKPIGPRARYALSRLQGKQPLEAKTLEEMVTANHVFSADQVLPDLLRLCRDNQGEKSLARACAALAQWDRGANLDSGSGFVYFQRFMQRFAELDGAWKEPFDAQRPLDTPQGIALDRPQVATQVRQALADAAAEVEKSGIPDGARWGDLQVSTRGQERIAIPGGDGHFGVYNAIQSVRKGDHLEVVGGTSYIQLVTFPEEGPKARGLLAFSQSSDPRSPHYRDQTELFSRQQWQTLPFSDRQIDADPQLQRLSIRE

[11] = biological target: T1, Eukaryotic translation initiation factor 2-alpha kinase 3 (Homo sapiens, UniProt Q9NZJ5); test: Counterscreen assay for PERK inhibitors: Dose response cell-based high throughput screening assay to measure inhibition of PERK at 6 hours. [Related pubchem assays: 1522, 1416 ]; format: functional
T1 sequence (Q9NZJ5 whole entry): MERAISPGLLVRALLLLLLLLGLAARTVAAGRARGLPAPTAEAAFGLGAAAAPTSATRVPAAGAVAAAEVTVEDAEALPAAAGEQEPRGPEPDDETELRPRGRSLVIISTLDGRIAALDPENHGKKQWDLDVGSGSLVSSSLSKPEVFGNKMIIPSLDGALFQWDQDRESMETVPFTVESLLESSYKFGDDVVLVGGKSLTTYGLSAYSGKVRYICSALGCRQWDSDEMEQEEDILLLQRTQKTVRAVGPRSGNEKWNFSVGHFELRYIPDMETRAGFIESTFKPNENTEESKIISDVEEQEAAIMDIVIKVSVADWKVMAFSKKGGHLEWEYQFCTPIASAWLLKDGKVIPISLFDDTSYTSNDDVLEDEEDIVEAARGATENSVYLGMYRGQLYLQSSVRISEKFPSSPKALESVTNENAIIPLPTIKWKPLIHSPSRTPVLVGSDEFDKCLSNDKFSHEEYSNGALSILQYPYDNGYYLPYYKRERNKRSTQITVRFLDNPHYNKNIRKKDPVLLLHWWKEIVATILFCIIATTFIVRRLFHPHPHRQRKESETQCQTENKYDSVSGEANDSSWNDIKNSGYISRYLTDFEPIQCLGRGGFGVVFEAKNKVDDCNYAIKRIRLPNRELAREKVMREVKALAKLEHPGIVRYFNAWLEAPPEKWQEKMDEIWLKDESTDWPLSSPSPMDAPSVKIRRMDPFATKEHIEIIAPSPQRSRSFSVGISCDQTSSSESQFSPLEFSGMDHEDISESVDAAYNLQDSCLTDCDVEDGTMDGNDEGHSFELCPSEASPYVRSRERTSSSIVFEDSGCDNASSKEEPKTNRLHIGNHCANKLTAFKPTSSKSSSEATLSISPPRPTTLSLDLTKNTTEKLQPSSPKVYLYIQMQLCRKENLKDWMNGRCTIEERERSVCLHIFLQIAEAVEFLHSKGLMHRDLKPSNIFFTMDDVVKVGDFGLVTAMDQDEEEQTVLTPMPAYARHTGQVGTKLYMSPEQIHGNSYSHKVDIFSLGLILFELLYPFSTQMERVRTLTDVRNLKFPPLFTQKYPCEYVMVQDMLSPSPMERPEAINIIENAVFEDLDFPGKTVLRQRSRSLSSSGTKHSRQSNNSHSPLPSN

[12] = biological target: T1, Eukaryotic translation initiation factor 2-alpha kinase 3; test: Dose response cell-based high-throughput screening assay to measure PERK inhibition. [Related pubchem assays: 1416 ]; format: functional
[13] = biological target: T2, Heat shock factor protein 1 (Mus musculus, UniProt P38532); test: inhibition of MG132-induced HSE-luciferase signal, confirmation, cell-based, NIH3T3, luminescence, dose retest (AID 2382); format: functional;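 also: NIH3T3 fibroblasts with HSF1-driven luciferase reporter stressed by proteasome inhibitor MG132; luminescence from HSF1-driven luciferase expression after 8 hours of MG132 stress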
T2 sequence (P38532 whole entry): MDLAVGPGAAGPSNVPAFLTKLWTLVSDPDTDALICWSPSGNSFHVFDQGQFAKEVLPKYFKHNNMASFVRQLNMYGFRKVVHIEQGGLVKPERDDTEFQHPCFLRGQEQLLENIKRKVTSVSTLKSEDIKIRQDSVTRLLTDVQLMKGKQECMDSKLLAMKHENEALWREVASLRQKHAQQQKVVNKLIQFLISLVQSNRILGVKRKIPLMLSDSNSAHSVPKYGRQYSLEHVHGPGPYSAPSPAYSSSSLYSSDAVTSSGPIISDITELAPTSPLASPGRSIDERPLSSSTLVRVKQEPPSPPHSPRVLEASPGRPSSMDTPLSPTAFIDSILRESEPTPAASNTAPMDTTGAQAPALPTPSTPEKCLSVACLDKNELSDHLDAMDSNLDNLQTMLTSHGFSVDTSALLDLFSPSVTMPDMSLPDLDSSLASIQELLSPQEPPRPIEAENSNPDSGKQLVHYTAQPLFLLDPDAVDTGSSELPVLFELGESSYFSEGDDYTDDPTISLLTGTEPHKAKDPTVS

Chain of Mucolipin-3 (Q8TDD5 whole entry): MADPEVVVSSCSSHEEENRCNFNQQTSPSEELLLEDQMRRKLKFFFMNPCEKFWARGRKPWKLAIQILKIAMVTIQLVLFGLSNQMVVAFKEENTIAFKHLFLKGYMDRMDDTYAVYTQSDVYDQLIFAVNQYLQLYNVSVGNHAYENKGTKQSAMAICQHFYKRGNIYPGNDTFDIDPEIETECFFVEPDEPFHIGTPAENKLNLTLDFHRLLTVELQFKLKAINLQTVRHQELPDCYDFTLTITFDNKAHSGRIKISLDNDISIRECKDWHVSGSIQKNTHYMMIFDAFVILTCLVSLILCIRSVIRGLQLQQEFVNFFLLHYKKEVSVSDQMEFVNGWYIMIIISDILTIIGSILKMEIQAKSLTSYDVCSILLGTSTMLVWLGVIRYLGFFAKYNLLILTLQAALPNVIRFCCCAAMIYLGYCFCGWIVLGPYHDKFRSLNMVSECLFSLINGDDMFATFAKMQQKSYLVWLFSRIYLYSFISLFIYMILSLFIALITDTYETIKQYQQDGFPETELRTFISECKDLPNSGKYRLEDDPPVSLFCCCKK

SMILES: CN(C)c1ncc(S(=O)(=O)c2ccccc2)c(-c2ccc(Cl)cc2Cl)n1
- EC50 [1]: 1.87 µM (active)
- EC50 [2]: > 29.9 µM (not active)

SMILES: C/C=C/OC(=O)NC(c1ccccc1)[C@]1(C(C)=O)CCCC1=O (some centres undefined)
- AC50 [3]: 0.126 µM (inconclusive)
- AC50 [4]: 3.98 µM (inconclusive)

SMILES: COc1ccc2c(c1)c(CC(=O)Nc1ccc(C)cc1)c(C)n2C(=O)c1ccc(Cl)cc1
- EC50 [5]: > 60 µM (not active)
- EC50 [6]: 1.04 µM (active)
- CC50 [7]: > 40 µM (active)

SMILES: O=C(N=Nc1c(O)[nH]c2ccccc12)c1cc(-c2cccs2)[nH]n1
- IC50 [8]: 11.5 µM (active)
- IC50 [9]: 28.8 µM (active)

SMILES: CC(C)[C@H]1C(=O)N2CCC[C@@H]2[C@]2(O)O[C@@](NC(=O)[C@H]3C=C4c5cccc6[nH]cc(c56)C[C@H]4N(C)C3)(C(C)C)C(=O)N12
- AC50 [4]: 25.1 µM (inconclusive)

SMILES: N#CC(c1ccc(F)cc1)c1ccc(C(=O)c2ccccc2)cc1 (centres undefined)
- AC50 [10]: > 100 µM (inactive)

SMILES: Cc1ccccc1CO/N=C/c1[nH]ncc1Br
- EC50 [11]: > 55.7 µM (not active)
- EC50 [12]: > 55.7 µM (not active)
- EC50 [13]: > 195 µM (not active)
